From US11584714B2 (priority 2018, dated 2023)
Structures can show the parent of a compound that is named as a salt. Where two headings read alike, the source gives them in different places.

Key:
Format in all cases: biochemical
[1] = target: MASP-2 (CCP1-CCP2-SP) (Homo sapiens (Human), UniProt O00187); test: biochemical; conditions: for Ki: read-out: MASP-2 Ki
[2] = target: mMASP-2 (Mus musculus (Mouse), UniProt Q91WP0); test: Enzymatic inhibition of mMASP-2
[3] = target: human α-thrombin (Homo sapiens (Human), UniProt P00734); test: Enzymatic assay for thrombin (Boc-VPR-AMC substrate)
[4] = tested on: Lectin Pathway; test: Lectin pathway activation assay in human serum (mannan-coated ELISA, C3c detection); conditions: 1% human serum
[5] = MASP-2 inhibition versus thrombin
[6] = selectivity for MASP-2 inhibition versus thrombin

Chain of mMASP-2 (Q91WP0 20-685): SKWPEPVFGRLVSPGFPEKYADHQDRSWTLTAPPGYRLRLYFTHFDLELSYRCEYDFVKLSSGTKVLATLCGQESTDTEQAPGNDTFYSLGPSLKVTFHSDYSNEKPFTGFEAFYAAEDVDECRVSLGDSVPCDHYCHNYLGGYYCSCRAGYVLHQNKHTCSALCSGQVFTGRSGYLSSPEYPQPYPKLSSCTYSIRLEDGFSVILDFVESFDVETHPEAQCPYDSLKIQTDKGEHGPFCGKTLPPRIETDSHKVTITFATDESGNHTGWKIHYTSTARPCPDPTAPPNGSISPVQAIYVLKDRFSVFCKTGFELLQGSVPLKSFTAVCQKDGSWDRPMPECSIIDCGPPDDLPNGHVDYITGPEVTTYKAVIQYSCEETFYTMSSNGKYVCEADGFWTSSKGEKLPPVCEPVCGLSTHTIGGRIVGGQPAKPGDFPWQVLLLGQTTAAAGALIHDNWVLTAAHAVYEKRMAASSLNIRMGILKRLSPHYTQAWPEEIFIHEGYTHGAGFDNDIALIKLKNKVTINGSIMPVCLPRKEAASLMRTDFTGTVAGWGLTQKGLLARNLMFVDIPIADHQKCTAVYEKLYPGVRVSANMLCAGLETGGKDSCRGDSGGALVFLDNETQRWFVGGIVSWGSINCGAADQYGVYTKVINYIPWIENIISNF
Chain of MASP-2 (CCP1-CCP2-SP) (O00187 445-686): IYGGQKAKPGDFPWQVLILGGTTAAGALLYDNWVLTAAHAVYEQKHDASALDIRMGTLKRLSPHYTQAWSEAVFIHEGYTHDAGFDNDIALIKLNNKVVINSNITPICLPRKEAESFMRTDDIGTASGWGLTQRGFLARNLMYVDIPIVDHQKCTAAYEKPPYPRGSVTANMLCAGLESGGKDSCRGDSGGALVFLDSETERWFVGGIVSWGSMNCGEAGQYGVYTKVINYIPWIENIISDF

Row | Compound | MASP-2 vs. thrombin selectivity [1, 5] | Ki [1] | Ki ([2]; read-out: mMASP-2 Ki) | Ki ([3]; read-out: Thrombin Ki) | IC50 [4] | MASP-2 vs. thrombin selectivity [1, 6] | Ki ([3]; Thrombin Ki (μM)) | Ki [2]
1 | C[C@H](NC(=O)[C@H](N)CCc1ccccc1)C(=O)NCc1ccc2nc(N)[nH]c2c1 (single isomer, unassigned) [compound 1040, Di-trifluoroacetate salt] | **** (>100-fold) | < 500 nM | < 500 nM | > 25 µM | 500 to 5000 nM |  |  | 
2 | C[C@H](NC(=O)[C@H](N)CCc1ccccc1)C(=O)NCc1ccc2c(N)ncnc2c1 [compound 1060, (R)-2-Amino-N—((S)-1-(((4-aminoquinazolin-7-yl)methyl)amino)-1-oxopropan-2-yl)-4-phenylbutanamide Dihydrochloride] | *** (25 to 100-fold) |  | > 25000 nM | > 25 µM | > 50000 nM |  |  | 
3 | Cc1c(Cl)cccc1CC[C@@H](N)C(=O)N[C@@H](C)C(=O)NCc1ccc(C(=N)N)cc1 [compound 1103] | ** (5.0 to 25-fold) | < 500 nM | < 500 nM | < 0.5 µM | 50 to 500 nM |  |  | 
4 | Cc1[nH]c(C(=O)N[C@@H](C)C(=O)NCc2ccc(C(=N)N)cc2)cc1-c1ccccc1 [compound 1239, (S)—N-(1-((4-Carbamimidoylbenzyl)amino)-1-oxopropan-2-yl)-5-methyl-4-phenyl-1H-pyrrole-2-carboxamide] |  | < 500 nM | < 500 nM |  | 500 to 5000 nM | ** (≥5.0 to <25-fold) | 2.5 to 10 µM | 
5 | Cc1nc(N)ccc1CNC(=O)[C@H](C)NC(=O)[C@H]1C[C@@H](c2ccccc2)CCN1 [compound 1253, (2R,4S)—N—((S)-1-(((6-Amino-2-methylpyridin-3-yl)methyl)amino)-1-oxopropan-2-yl)-4-phenylpiperidine-2-carboxamide] |  | < 500 nM |  | > 25 µM | 50 to 500 nM |  |  | 500 to 2500 nM
6 | Cc1nc(N)ccc1CNC(=O)[C@H](C)NC(=O)[C@H]1C[C@H](Cc2cccc3ccccc23)CN1 [compound 1324, (2R,4S)—N—((S)-1-(((6-Amino-2-methylpyridin-3-yl)methyl)amino)-1-oxopropan-2-yl)-4-(naphthalen-1-ylmethyl)pyrrolidine-2-carboxamide Di-trifluoroacetate salt] |  | < 500 nM | < 500 nM |  | 50 to 500 nM | *** (≥25 to <100-fold) | 0.5 to 2.5 µM | 
7 | Cc1nc(N)ccc1CNC(=O)[C@H](C)NC(=O)[C@H]1C[C@H](Cc2cccc(Cl)c2)CN1 [compound 1328, (2R,4S)—N—((S)-1-(((6-amino-2-methylpyridin-3-yl)methyl)amino)-1-oxopropan-2-yl)-4-(3-chlorobenzyl)pyrrolidine-2-carboxamide Dihydrochloride] |  | < 500 nM | < 500 nM |  | 50 to 500 nM | **** (≥100-fold) | 0.5 to 2.5 µM | 
8 | Cc1cc(C)cc(C[C@@H]2CN[C@@H](C(=O)N[C@@H](C)C(=O)NCc3ccc(N)nc3C)C2)c1 [compound 1331, (2R,4S)—N—((S)-1-(((6-amino-2-methylpyridin-3-yl)methyl)amino)-1-oxopropan-2-yl)-4-(3,5-dimethylbenzyl)pyrrolidine-2-carboxamide Dihydrochloride] |  | < 500 nM | < 500 nM | > 25 µM | 50 to 500 nM | **** (≥100-fold) |  | 
9 | Cc1cccc(C[C@@H]2CN[C@@H](C(=O)N[C@@H](C)C(=O)NCc3ccc(N)nc3C)C2)c1 [compound 1337, (2R,4S)—N—((S)-1-(((6-amino-2-methylpyridin-3-yl)methyl)amino)-1-oxopropan-2-yl)-4-(3-methylbenzyl)pyrrolidine-2-carboxamide dihydrochloride] |  | < 500 nM | < 500 nM |  | 500 to 5000 nM | **** (≥100-fold) | 0.5 to 2.5 µM | 
10 | C[C@H](NC(=O)[C@@H](CCc1ccccc1)NCCc1ccc(Cl)cc1)C(=O)NCc1ccc(C(=N)N)cc1 [compound 1339, (R)—N—((S)-1-((4-Carbamimidoylbenzyl)amino)-1-oxopropan-2-yl)-2-((4-chlorophenethyl)amino)-4-phenylbutanamide Di-trifluoroacetate salt] |  | < 500 nM | < 500 nM | < 0.5 µM | < 50 nM | ** (≥5.0 to <25-fold) |  | 
11 | CC(=O)Nc1ccc(CCN[C@H](CCc2ccccc2)C(=O)N[C@@H](C)C(=O)NCc2ccc(C(=N)N)cc2)cc1 [compound 1345, (R)-2-((4-acetamidophenethyl)amino)-N-((S)-1-((4-carbamimidoylbenzyl)amino)-1-oxopropan-2-yl)-4-phenylbutanamide dihydrochloride] |  | < 500 nM | < 500 nM | < 0.5 µM | < 50 nM | **** (≥100-fold) |  | 
12 | Cc1nc(N)ccc1CNC(=O)[C@H](C)NC(=O)[C@H]1CN(Cc2ccccc2)CCN1 [compound 1347, (R)—N—((S)-1-(((6-Amino-2-methylpyridin-3-yl)methyl)amino)-1-oxopropan-2-yl)-4-benzylpiperazine-2-carboxamide Dihydrochloride] |  | < 500 nM | < 500 nM |  | < 50 nM | *** (≥25 to <100-fold) | 0.5 to 2.5 µM | 
13 | Cc1ccccc1CN1CCN[C@@H](C(=O)N[C@@H](C)C(=O)NCc2ccc(N)nc2C)C1 [compound 1348, (R)—N—((S)-1-(((6-Amino-2-methylpyridin-3-yl)methyl)amino)-1-oxopropan-2-yl)-4-(2-methylbenzyl)piperazine-2-carboxamide Dihydrochloride] |  | < 500 nM | < 500 nM | < 0.5 µM | < 50 nM | *** (≥25 to <100-fold) |  | 
14 | Cc1nc(N)ccc1CNC(=O)[C@H](C)NC(=O)[C@H]1C[C@H](Cc2ccc(Br)cc2)CN1 [compound 1350, (2R,4S)—N—((S)-1-(((6-Amino-2-methylpyridin-3-yl)methyl)amino)-1-oxopropan-2-yl)-4-(4-bromobenzyl)pyrrolidine-2-carboxamide Dihydrochloride] |  | < 500 nM | < 500 nM |  | 500 to 5000 nM | **** (≥100-fold) | 2.5 to 10 µM | 
15 | C[C@H](NC(=O)[C@@H](CCc1ccccc1)NCCc1cccc(OC(F)(F)F)c1)C(=O)NCc1ccc(C(=N)N)cc1 [compound 1352, (R)—N—((S)-1-((4-Carbamimidoylbenzyl)amino)-1-oxopropan-2-yl)-4-phenyl-2-((3-(trifluoromethoxy)phenethyl)amino)butanamide Di-trifluoroacetate salt] |  | < 500 nM | < 500 nM |  | 50 to 500 nM | *** (≥25 to <100-fold) | 0.5 to 2.5 µM | 
16 | Cc1nc(N)ccc1CNC(=O)[C@H](C)NC(=O)[C@H]1C[C@@H](Cc2ccccc2)CCN1 [compound 1353, (2R,4S)—N—((S)-1-(((6-Amino-2-methylpyridin-3-yl)methyl)amino)-1-oxopropan-2-yl)-4-benzylpiperidine-2-carboxamide Dihydrochloride] |  | < 500 nM | < 500 nM | < 0.5 µM | < 50 nM | *** (≥25 to <100-fold) |  | 
17 | Cc1nc(N)ccc1CNC(=O)[C@H](C)NC(=O)[C@H]1C[C@H](Cc2ccc(-c3nccs3)cc2)CN1 [compound 1361, (2R,4S)—N—((S)-1-(((6-Amino-2-methylpyridin-3-yl)methyl)amino)-1-oxopropan-2-yl)-4-(4-(thiazol-2-yl)benzyl)pyrrolidine-2-carboxamide Di-trifluoroacetate salt] |  | < 500 nM | < 500 nM | > 25 µM | < 50 nM | **** (≥100-fold) |  | 
18 | Cc1cc(Cl)cc(CNC(=O)[C@H](C)NC(=O)[C@H]2C[C@@H](Cc3ccccc3)CCN2)c1O [compound 1363, (2R,4S)-4-Benzyl-N-((S)-1-((5-chloro-2-hydroxy-3-methylbenzyl)amino)-1-oxopropan-2-yl)piperidine-2-carboxamide Hydrochloride] |  | < 500 nM | < 500 nM |  | 50 to 500 nM | **** (≥100-fold) | 2.5 to 10 µM | 
19 | Cc1cc(Cl)cc(CNC(=O)[C@H](C)NC(=O)[C@H]2C[C@H](Cc3ccc4ccccc4c3)CN2)c1O [compound 1370, (2R,4S)—N—((S)-1-((5-Chloro-2-hydroxy-3-methylbenzyl)amino)-1-oxopropan-2-yl)-4-(naphthalen-2-ylmethyl)pyrrolidine-2-carboxamide] |  | < 500 nM |  | > 25 µM | 50 to 500 nM |  |  | 500 to 2500 nM
